# Data reported in paper PMC10484568 (Chemical communications (Cambridge, England), 2019).
# Where a SMILES comes first, the peptide text is derived from it. Bridges are numbered along the chain shown (N, C = ends). [ ]: non-standard residue; d: D form. The star is where a group is joined. X1 = CC[C@H](C)CCCCC(=O)*; Dab = NCC[C@H](N)C(=O)O
# Experiments:
# Type in all cases: cell-based
# [1] = system: MRSA
# [2] = system: P. aeruginosa
# [3] = system: MRSE
# [4] = system: E. coli
# [5] = Hemolytic activity
compound,measurement,setting,value
"CC[C@H](C)CCCCC(=O)N[C@@H](CCN)C(=O)N[C@H](C(=O)N[C@@H](CCN)C(=O)N[C@H]1CCNC(=O)[C@H]([C@@H](C)O)NC(=O)[C@H](CCN)NC(=O)[C@H](CCN)NC(=O)[C@H](CC(C)C)NC(=O)[C@@H](CC(C)C)NC(=O)[C@H](CCN)NC1=O)[C@@H](C)O [Colistin, colistin] (X1-[Dab]T[Dab][Dab][Dab][dL]L[Dab][Dab]T; lactam 4-C (inferred); N-terminus assumed)",Activity against MRSA (in words),[1],not active
same,MIC MRSA (Gram positive),[1]; multidrug resistant strain,>50 µg/mL
same,MIC P. aeruginosa (Gram negative),[2],0.5 µg/mL
same,MIC MRSE (Gram positive),[3],> 50 µg/mL
same,MIC E. coli (Gram negative),[4],0.5 µg/mL
same,HC50,[5],> 250 µg/mL
